Molecular target: T1, TRPC6 channel (Homo sapiens, UniProt Q9Y210)
T1 sequence (Q9Y210 1-931): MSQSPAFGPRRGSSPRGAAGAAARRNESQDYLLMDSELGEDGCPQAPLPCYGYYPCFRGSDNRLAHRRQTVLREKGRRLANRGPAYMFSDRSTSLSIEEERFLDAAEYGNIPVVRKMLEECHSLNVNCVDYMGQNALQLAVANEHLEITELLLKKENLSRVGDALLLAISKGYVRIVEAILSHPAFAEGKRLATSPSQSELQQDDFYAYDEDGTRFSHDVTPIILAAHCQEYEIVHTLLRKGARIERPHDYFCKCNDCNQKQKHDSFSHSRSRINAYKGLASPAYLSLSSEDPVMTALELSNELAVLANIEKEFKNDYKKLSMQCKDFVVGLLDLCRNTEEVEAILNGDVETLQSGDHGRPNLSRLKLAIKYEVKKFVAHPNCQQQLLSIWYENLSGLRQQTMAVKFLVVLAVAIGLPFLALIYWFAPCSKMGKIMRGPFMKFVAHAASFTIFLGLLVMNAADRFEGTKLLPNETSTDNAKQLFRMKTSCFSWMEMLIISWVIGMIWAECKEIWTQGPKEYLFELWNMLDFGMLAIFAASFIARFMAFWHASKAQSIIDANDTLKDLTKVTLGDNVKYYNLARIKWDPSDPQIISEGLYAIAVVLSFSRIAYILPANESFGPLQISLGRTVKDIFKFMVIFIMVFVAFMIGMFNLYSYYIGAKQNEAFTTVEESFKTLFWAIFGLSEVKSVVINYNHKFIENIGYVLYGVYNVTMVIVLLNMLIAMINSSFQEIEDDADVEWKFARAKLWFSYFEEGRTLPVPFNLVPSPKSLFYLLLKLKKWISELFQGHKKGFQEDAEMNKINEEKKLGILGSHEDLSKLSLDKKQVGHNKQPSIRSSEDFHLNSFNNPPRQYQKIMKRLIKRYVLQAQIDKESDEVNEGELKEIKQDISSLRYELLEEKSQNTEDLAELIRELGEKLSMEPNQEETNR
Test: Inhibition of TRPC6 channel-mediated Ca2+ entry in HEK293hTRPC6 cells (Fura-2/AM, single concentration)
Type: cell-based
Design: expressed in transfected cells; host or cells: HEK293 (lentiviral transduction, puromycin selection)
Settings: compound 80 μM, OAG 80 μM; for inhibition at 80 µM: read-out: inhibition of Ca2+ entry into the cells via TRPC6 channels compared with the solvent control group
Description: The inhibitory effect of the compounds of the present invention (as exemplified by Compound 1-1 obtained in Example 1) on TRPC6 channel-mediated Ca^2+ entry was determined using HEK293hTRPC6 as a tool cell overexpressing TRPC6 protein. The method was as follows:
Establishment of HEK293hTRPC6, a tool cell overexpressing TRPC6 protein: human embryonic kidney cells HEK293 were placed in DMEM culture medium (containing 10% inactivated fetal bovine serum, 100 U-mL^−1 penicillin, and 100 mg-L^−1 streptomycin) and cultured at 37° C. in a 5% CO2 incubator. Cells in the logarithmic growth phase were harvested at 50% and incubated with 25 μL of LV105-TRPC6 lentiviral particle suspension for 24 hours, and then the medium was changed. The experiment included a negative control group (no-load lentivirus) and a blank control group. The medium containing 2 μg/mL puromycin was changed after 48 h of infection until the cells in the blank group died. Western Blot assay was performed to detect the expression of TRPC6 protein in the cells to verify the successful construction of HEK293hTRPC6 cell.
Determination of the effect of the compounds on changes in intracellular calcium ion concentration ([Ca^2+]i) in HEK293hTRPC6 cells: HEK293hTRPC6 cell suspension was added to a 24-well plate with a coverslip and incubated at 37° C. in a 5% CO2 incubator for 24 h. The cell crawls were then removed and placed in the fluorescent dye Fura-2/AM, and incubated for 20 min at room temperature away from light. The slides were placed in the center of the bath, perfused with calcium-free Tyrode's solution for 5 min and fixed on the stage of an inverted fluorescence microscope. […] Fluorescence intensity was measured at different excitation wavelengths (340 nm, 380 nm) using a TILL Ion Imaging system (TILLvisION), and the value of fluorescence intensity emitted by intracellular fluorescent probe at different excitation wavelengths was substituted into the formula: [Ca^2+]i=Kd×β×(R−Rmin)/[…]. In the formula, R represents the experimentally determined fluorescence ratio (F340/F380); Kd represents the dissociation constant for the reaction of Fura-2/AM with Ca^2+, which is 386 nmol/L under physiological conditions; Rmax represents the F340/F380 when Ca^2+ is saturated (all Fura-2/AM is bound to Ca^2+); Rmin represents the F340/F380 when there is no Ca^2+; and β represents the ratio of fluorescence intensities at 380 nm in the absence of Ca^2+ and when Ca^2+ is saturated.
Experimental results: the amount of TRPC6-mediated Ca^2+ entry under conditions of open TRPC6 channels and the presence of extracellular Ca^2+ was measured, and the actual biological activity of the compounds was assessed by comparison with the solvent control.

Compound	amount of TRPC6-mediated Ca2+ entry	inhibition at 80 µM
Cn1c(C(=O)NCCC(=O)O)cc2ccccc21 [3-[(1-methyl-1H-indole-2-carbonyl)amino]propionic acid, reference compound]	0.10±0.01	53.9%
CC(=O)OCCCNC(=O)c1c(C=O)c2ccccc2n1C [compound 1-1, propyl 3-[(3-formyl-1-methyl-1H-indole-2-carbonyl)amino]acetate]	0.06±0.01	79.9%

From patent US12692232B2, “Indole carboxamide compound, preparation therefor and use thereof” (NANJING RUISHUNING MEDICAL TECHNOLOGY CO., LTD., priority 2021, dated 2026)
